The record followed here is patent US10717716B2, “1,3,4-oxadiazole derivative compounds as histone deacetylase 6 inhibitor, and the pharmaceutical composition comprising the same” (Chong Kun Dang Pharmaceutical Corp., priority 2015, dated 2020).

This test has as its target T1, human recombinant HDAC6 (Homo sapiens, UniProt Q9UBN7).
T1 construct: purchased Calbiochem 382180
T1 sequence (Q9UBN7 1-1215): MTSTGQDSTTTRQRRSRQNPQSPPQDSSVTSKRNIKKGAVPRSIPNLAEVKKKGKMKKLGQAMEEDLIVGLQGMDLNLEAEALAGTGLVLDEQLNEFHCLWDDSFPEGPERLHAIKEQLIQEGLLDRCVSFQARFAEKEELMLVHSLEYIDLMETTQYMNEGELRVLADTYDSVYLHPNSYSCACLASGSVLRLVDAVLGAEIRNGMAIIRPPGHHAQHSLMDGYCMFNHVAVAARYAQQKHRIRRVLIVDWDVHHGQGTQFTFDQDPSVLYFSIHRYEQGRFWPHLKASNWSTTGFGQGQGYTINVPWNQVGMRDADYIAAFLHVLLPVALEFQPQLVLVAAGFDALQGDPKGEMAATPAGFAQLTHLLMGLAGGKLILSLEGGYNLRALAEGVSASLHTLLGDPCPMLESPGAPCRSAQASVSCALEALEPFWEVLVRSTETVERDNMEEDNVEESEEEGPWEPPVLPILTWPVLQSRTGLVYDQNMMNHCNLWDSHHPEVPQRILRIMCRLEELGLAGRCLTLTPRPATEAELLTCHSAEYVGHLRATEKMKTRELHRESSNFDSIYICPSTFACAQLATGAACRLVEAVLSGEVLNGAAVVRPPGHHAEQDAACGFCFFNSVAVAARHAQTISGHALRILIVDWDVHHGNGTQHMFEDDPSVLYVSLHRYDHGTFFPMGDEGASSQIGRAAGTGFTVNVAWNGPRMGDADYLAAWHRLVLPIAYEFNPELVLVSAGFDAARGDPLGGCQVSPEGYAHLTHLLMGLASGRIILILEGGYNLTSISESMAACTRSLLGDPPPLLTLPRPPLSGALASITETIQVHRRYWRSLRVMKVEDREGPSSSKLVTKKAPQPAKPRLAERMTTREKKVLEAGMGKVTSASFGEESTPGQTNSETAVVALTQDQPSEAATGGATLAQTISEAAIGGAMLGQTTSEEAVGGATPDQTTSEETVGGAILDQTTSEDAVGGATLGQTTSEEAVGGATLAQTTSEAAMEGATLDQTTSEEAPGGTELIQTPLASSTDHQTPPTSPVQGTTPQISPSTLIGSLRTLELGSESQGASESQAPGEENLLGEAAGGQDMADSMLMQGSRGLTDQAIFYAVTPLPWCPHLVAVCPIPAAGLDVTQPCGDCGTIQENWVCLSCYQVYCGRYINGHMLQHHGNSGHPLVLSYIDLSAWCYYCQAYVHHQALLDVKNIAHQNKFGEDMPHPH
The test is described as follows: HDAC6 enzyme activity inhibition assay (HDAC Fluorimetric Drug Discovery Kit). Type of test: biochemical. The note with it: for HDAC6 selectivity (fold): HDAC6 over HDAC1; for IC50: human recombinant HDAC6, same protocol as HDAC1, read-out: HDAC6. The method, boiled down:
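Human recombinant HDAC1 or HDAC6 (0.3 μg) reacted with 10 μM Fluor de Lys-SIRT1 substrate and 5-fold compound dilutions for 60 min at 30 °C. Developer II added for 30 min, fluorescence read at Ex 360/Em 460; IC50 calculated from the readings.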

Each structure is given as a SMILES string.

With `O=C(N1CCS(=O)(=O)CC1)N(Cc1ccc(-c2nnc(C(F)F)o2)cn1)c1cccc(Cl)c1` [Compound 21626, N-(3-chlorophenyl)-N-((5-(5-(difluoromethyl)-1,3,4-oxadiazol-2-yl)pyridin-2-yl)methyl)thiomorpholine-4-carboxamide 1,1-dioxide], the “HDAC6 selectivity (fold)” value came to 645 fold and the IC50 amounted to 16 nM.

On to `CN1CCN(c2cccc(N(Cc3ccc(-c4nnc(C(F)F)o4)cn3)C(=O)N3CCS(=O)(=O)CC3)c2)CC1` [Compound 21627, N-((5-(5-(difluoromethyl)-1,3,4-oxadiazol-2-yl)pyridin-2-yl)methyl)-N-(3-(4-methylpiperazin-1-yl)phenyl)thiomorpholine-4-carboxamide 1,1-dioxide], for which the “HDAC6 selectivity (fold)” value worked out at 22 fold and the IC50 was found to be 457 nM.

For the compound `CN1CCN(c2ccc(N(Cc3ccc(-c4nnc(C(F)F)o4)cn3)C(=O)N3CCS(=O)(=O)CC3)cc2)CC1` [Compound 21628, N-((5-(5-(difluoromethyl)-1,3,4-oxadiazol-2-yl)pyridin-2-yl)methyl)-N-(4-(4-methylpiperazin-1-yl)phenyl)thiomorpholine-4-carboxamide 1,1-dioxide], the “HDAC6 selectivity (fold)” value came out at 37 fold and the IC50 worked out at 271 nM.

As to `CCN1CCN(C(=O)N(Cc2ccc(-c3nnc(C(F)F)o3)cn2)c2ccc(F)c(Cl)c2)CC1` [Compound 21629, N-(3-chloro-4-fluorophenyl)-N-((5-(5-(difluoromethyl)-1,3,4-oxadiazol-2-yl)pyridin-2-yl)methyl)-4-ethylpiperazine-1-carboxamide], the “HDAC6 selectivity (fold)” value is 880 fold and the IC50 is 11 nM.

For the compound `O=C(N1CCOCC1)N(Cc1ccc(-c2nnc(C(F)F)o2)cn1)c1ccccc1` [Compound 21630, N-((5-(5-(difluoromethyl)-1,3,4-oxadiazol-2-yl)pyridin-2-yl)methyl)-N-phenylmorpholine-4-carboxamide], the “HDAC6 selectivity (fold)” value was found to be 549 fold and the IC50 was determined as 18 nM.

As for `O=C(N1CCS(=O)(=O)CC1)N(Cc1ccc(-c2nnc(C(F)F)o2)cn1)c1ccc(Oc2ccccc2)cc1` [Compound 21631, N-((5-(5-(difluoromethyl)-1,3,4-oxadiazol-2-yl)pyridin-2-yl)methyl)-N-(4-phenoxyphenyl)thiomorpholine-4-carboxamide 1,1-dioxide], the “HDAC6 selectivity (fold)” value is reported as 138 fold and the IC50 stood at 72 nM.

As for `Cc1ccccc1N(Cc1ccc(-c2nnc(C(F)F)o2)cn1)C(=O)N1CCN(C)CC1` [Compound 21632, N-((5-(5-(difluoromethyl)-1,3,4-oxadiazol-2-yl)pyridin-2-yl)methyl)-4-methyl-N-(o-tolyl)piperazine-1-carboxamide], the “HDAC6 selectivity (fold)” value is 245 fold and the IC50 turned out to be 41 nM.

Consider `Cc1ccccc1N(Cc1ccc(-c2nnc(C(F)(F)F)o2)cn1)C(=O)N1CCN(C)CC1` [Compound 21633, 4-Methyl-N-(o-tolyl)-N-((5-(5-(trifluoromethyl)-1,3,4-oxadiazol-2-yl)pyridin-2-yl)methyl)piperazine-1-carboxamide], for which the “HDAC6 selectivity (fold)” value was found to be 58 fold and the IC50 came out at 173 nM.

With `CN1CCN(C(=O)N(Cc2ccc(-c3nnc(C(F)(F)F)o3)cn2)c2ccccc2F)CC1` [Compound 21634, N-(2-fluorophenyl)-4-methyl-N-((5-(5-(trifluoromethyl)-1,3,4-oxadiazol-2-yl)pyridin-2-yl)methyl)piperazine-1-carboxamide], the “HDAC6 selectivity (fold)” value came to 83 fold and the IC50 was 120 nM.

Regarding `CN(C)[C@H]1CCN(C(=O)N(Cc2ccc(-c3nnc(C(F)F)o3)cc2F)c2cccc(Cl)c2F)C1` [Compound 21643, (S)—N-(3-chloro-2-fluorophenyl)-N-(4-(5-(difluoromethyl)-1,3,4-oxadiazol-2-yl)-2-fluorobenzyl)-3-(dimethylamino)pyrrolidine-1-carboxamide], the “HDAC6 selectivity (fold)” value is recorded as 352 fold and the IC50 is 28 nM.

In the case of `CN(C)[C@H]1CCN(C(=O)N(Cc2ccc(-c3nnc(C(F)(F)F)o3)cc2F)c2cccc(Cl)c2F)C1` [Compound 21644, (S)—N-(3-chloro-2-fluorophenyl)-3-(dimethylamino)-N-(2-fluoro-4-(5-(trifluoromethyl)-1,3,4-oxadiazol-2-yl)benzyl)pyrrolidine-1-carboxamide], the “HDAC6 selectivity (fold)” value is listed as 74 fold and the IC50 was 135 nM.

In the case of `CN(C)[C@@H]1CCN(C(=O)N(Cc2ccc(-c3nnc(C(F)(F)F)o3)cc2F)c2cccc(Cl)c2F)C1` [Compound 21645, (R)—N-(3-chloro-2-fluorophenyl)-3-(dimethylamino)-N-(2-fluoro-4-(5-(trifluoromethyl)-1,3,4-oxadiazol-2-yl)benzyl)pyrrolidine-1-carboxamide], the “HDAC6 selectivity (fold)” value turned out to be 46 fold and the IC50 came out at 216 nM.

In the case of `CCN1CCN(C(=O)N(Cc2ccc(-c3nnc(C(F)F)o3)cc2F)c2cccc(Cl)c2F)CC1` [Compound 21646, N-(3-chloro-2-fluorophenyl)-N-(4-(5-(difluoromethyl)-1,3,4-oxadiazol-2-yl)-2-fluorobenzyl)-4-ethylpiperazine-1-carboxamide], the “HDAC6 selectivity (fold)” value is 317 fold and the IC50 was determined as 32 nM.

For `O=C(N1CCS(=O)(=O)CC1)N(Cc1ccc(-c2nnc(C(F)F)o2)cc1F)c1ccc(F)cn1` [Compound 21653, N-(4-(5-(difluoromethyl)-1,3,4-oxadiazol-2-yl)-2-fluorobenzyl)-N-(5-fluoropyridin-2-yl)thiomorpholine-4-carboxamide 1,1-dioxide], the “HDAC6 selectivity (fold)” value worked out at 246 fold and the IC50 came out at 41 nM.

Turning to `CCN1CCN(C(=O)N(Cc2ccc(-c3nnc(C(F)F)o3)cc2F)c2cccc(F)c2F)CC1` [Compound 21655, N-(4-(5-(difluoromethyl)-1,3,4-oxadiazol-2-yl)-2-fluorobenzyl)-N-(2,3-difluorophenyl)-4-ethylpiperazine-1-carboxamide], the “HDAC6 selectivity (fold)” value was 690 fold and the IC50 was 15 nM.

With `CCN1CCN(C(=O)N(Cc2ccc(-c3nnc(C(F)F)o3)cc2F)c2ccc(C)c(Cl)c2)CC1` [Compound 21657, N-(3-chloro-4-methylphenyl)-N-(4-(5-(difluoromethyl)-1,3,4-oxadiazol-2-yl)-2-fluorobenzyl)-4-ethylpiperazine-1-carboxamide], the “HDAC6 selectivity (fold)” value amounted to 226 fold and the IC50 was determined as 44 nM.

On to `CN1CCN(C(=O)N(Cc2ccc(-c3nnc(C(F)F)o3)cc2F)c2cccc3cnn(C)c23)CC1` [Compound 21707, N-(4-(5-(Difluoromethyl)-1,3,4-oxadiazol-2-yl)-2-fluorobenzyl)-4-methyl-N-(1-methyl-1H-indazol-7-yl)piperazine-1-carboxamide], for which the “HDAC6 selectivity (fold)” value turned out to be 199 fold and the IC50 was determined as 50 nM.

For the compound `Cn1ncc2cccc(N(Cc3ccc(-c4nnc(C(F)F)o4)cc3F)C(=O)N3CCS(=O)(=O)CC3)c21` [Compound 21708, N-(4-(5-(Difluoromethyl)-1,3,4-oxadiazol-2-yl)-2-fluorobenzyl)-N-(1-methyl-1H-indazol-7-yl)thiomorpholine-4-carboxamide 1,1-dioxide], the “HDAC6 selectivity (fold)” value is 167 fold and the IC50 turned out to be 60 nM.

With `O=C(N1CC2(COC2)C1)N(Cc1ccc(-c2nnc(C(F)F)o2)cc1F)c1cccc(F)c1` [Compound 21759, N-(4-(5-(difluoromethyl)-1,3,4-oxadiazol-2-yl)-2-fluorobenzyl)-N-(3-fluorophenyl)-2-oxa-6-azaspiro[3.3]heptane-6-carboxamide], the “HDAC6 selectivity (fold)” value is on record as 405 fold and the IC50 was 25 nM.

Regarding `Cc1cccc(N(Cc2ccc(-c3nnc(C(F)F)o3)cc2F)C(=O)N2CC3(COC3)C2)c1` [Compound 21760, N-(4-(5-(difluoromethyl)-1,3,4-oxadiazol-2-yl)-2-fluorobenzyl)-N-(m-tolyl)-2-oxa-6-azaspiro[3.3]heptane-6-carboxamide], the “HDAC6 selectivity (fold)” value amounted to 215 fold and the IC50 was determined as 46 nM.
